Results from ChEMBL document CHEMBL1144827, “PTP1B inhibitors: synthesis and evaluation of difluoro-methylenephosphonate bioisosteres on a sulfonamide scaffold” (Bioorg Med Chem Lett, 2008).

What follows are compounds tested against T1, Tyrosine-protein phosphatase non-receptor type 1 (Homo sapiens, UniProt P18031) (assay: Inhibition of PTP1B).
T1 sequence (P18031 whole entry): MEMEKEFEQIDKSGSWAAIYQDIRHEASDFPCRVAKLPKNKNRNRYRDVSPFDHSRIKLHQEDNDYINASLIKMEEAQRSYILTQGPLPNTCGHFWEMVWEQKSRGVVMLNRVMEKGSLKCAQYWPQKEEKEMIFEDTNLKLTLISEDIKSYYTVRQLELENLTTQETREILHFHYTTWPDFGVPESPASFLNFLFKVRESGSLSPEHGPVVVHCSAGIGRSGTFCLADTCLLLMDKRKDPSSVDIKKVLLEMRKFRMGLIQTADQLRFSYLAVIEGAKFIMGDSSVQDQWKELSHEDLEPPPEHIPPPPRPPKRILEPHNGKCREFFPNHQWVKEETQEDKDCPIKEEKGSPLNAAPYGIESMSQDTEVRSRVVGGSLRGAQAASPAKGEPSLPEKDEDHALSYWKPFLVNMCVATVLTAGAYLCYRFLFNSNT
With O=C(O)COc1ccc(CN(Cc2ccc(-c3csnn3)cc2)S(=O)(=O)c2ccccc2)cc1Cl the IC50 was 53.8 µM. O=C(O)COc1ccc(S(=O)(=O)N(Cc2ccc(-c3csnn3)cc2)Cc2ccc(OC(F)(F)C(=O)O)c(Br)c2)cc1 showed an IC50 of 77.9 µM. O=C(O)COc1ccc(CN(Cc2ccc(-c3csnn3)cc2)S(=O)(=O)c2ccc(OCC(=O)O)cc2)cc1 was tested, and the IC50 was 59.6 µM. Work on O=C(O)C(F)(F)c1ccc(CN(Cc2ccc(-c3csnn3)cc2)S(=O)(=O)c2ccccc2)cc1 yielded an IC50 of 51.8 µM. With O=C(O)COc1ccc(S(=O)(=O)N(Cc2ccc(-c3csnn3)cc2)Cc2ccc(OCC(=O)O)c(Cl)c2)cc1 the IC50 was 57.7 µM. Work on O=C(O)COc1c(F)cc(CN(Cc2ccc(-c3csnn3)cc2)S(=O)(=O)c2ccccc2)cc1F yielded an IC50 of 137 µM. In the case of O=C(O)COc1ccc(S(=O)(=O)N(Cc2ccc(-c3csnn3)cc2)Cc2ccc(C(F)(F)C(=O)O)cc2)cc1, the IC50 is reported as 17.7 µM. With Cc1cc(CN(Cc2ccc(-c3csnn3)cc2)S(=O)(=O)c2ccccc2)ccc1OCC(=O)O the IC50 was 80.7 µM. O=C(O)COc1ccc(S(=O)(=O)N(Cc2ccc(-c3csnn3)cc2)Cc2ccc(OCC(=O)O)c(C(=O)O)c2)cc1 showed an IC50 of 4.4 µM. For O=C(O)C(=O)Nc1ccc(CN(Cc2ccc(-c3csnn3)cc2)S(=O)(=O)c2ccccc2)cc1C(=O)O, the IC50 was 10.1 µM. Cc1cc(CN(Cc2ccc(-c3csnn3)cc2)S(=O)(=O)c2ccccc2)cc(C)c1OC(Cc1ccccc1)C(=O)O (centres undefined) gave an IC50 of 38 µM. Cc1cc(CN(Cc2ccc(-c3csnn3)cc2)S(=O)(=O)c2ccc(OCC(=O)O)cc2)ccc1OCC(=O)O showed an IC50 of 76.2 µM. With COc1cc(CN(Cc2ccc(-c3csnn3)cc2)S(=O)(=O)c2ccc(OCC(=O)O)cc2)ccc1OC(F)(F)C(=O)O the IC50 was greater than 250 µM. CC(C(=O)O)(C(=O)O)c1ccc(CN(Cc2ccc(-c3csnn3)cc2)S(=O)(=O)c2ccc(OCC(=O)O)cc2)cc1 was tested, and the IC50 was 74.2 µM. CC(C(=O)O)c1ccc(CN(Cc2ccc(-c3csnn3)cc2)S(=O)(=O)c2ccc(OCC(=O)O)cc2)cc1 (centres undefined) showed an IC50 of 153 µM. For O=C(O)COc1ccc(S(=O)(=O)N(Cc2ccc(OC(F)(F)C(=O)O)cc2)Cc2ccc(-c3csnn3)cc2)cc1, the IC50 was 29.1 µM. O=C(O)C(F)(F)Oc1cccc(CN(Cc2ccc(-c3csnn3)cc2)S(=O)(=O)c2ccccc2)c1 was tested, and the IC50 was 198 µM. Work on O=C(O)COc1ccc(S(=O)(=O)N(Cc2ccc(-c3csnn3)cc2)Cc2cccc(OC(F)(F)C(=O)O)c2)cc1 yielded an IC50 of 230 µM. O=C(O)CSc1ccc(CN(Cc2ccc(-c3csnn3)cc2)S(=O)(=O)c2ccccc2)cc1 gave an IC50 of 115 µM. Work on O=C(O)C(F)(F)Oc1ccc(CN(Cc2ccc(-c3csnn3)cc2)S(=O)(=O)c2ccccc2)cc1 yielded an IC50 of 97.1 µM. O=C(O)CS(=O)(=O)c1ccc(CN(Cc2ccc(-c3csnn3)cc2)S(=O)(=O)c2ccccc2)cc1 showed an IC50 of 232 µM. For O=C(O)COc1ccc(S(=O)(=O)N(Cc2ccc(-c3csnn3)cc2)Cc2cc(F)c(OCC(=O)O)c(F)c2)cc1, the IC50 was 19.9 µM. Work on O=C(O)COc1ccc(S(=O)(=O)N(Cc2ccc(-c3csnn3)cc2)Cc2ccc(N(C(=O)C(=O)O)c3ccccc3)cc2)cc1 yielded an IC50 greater than 250 µM. COc1cc(CN(Cc2ccc(-c3csnn3)cc2)S(=O)(=O)c2ccccc2)ccc1OC(F)(F)C(=O)O was tested, and the IC50 was 237 µM. Cc1cc(CN(Cc2ccc(-c3csnn3)cc2)S(=O)(=O)c2ccc(OCC(=O)O)cc2)cc(C)c1OC(Cc1ccccc1)C(=O)O (centres undefined) showed an IC50 greater than 250 µM. With O=C(O)C(=O)c1ccc(CN(Cc2ccc(-c3csnn3)cc2)S(=O)(=O)c2ccccc2)cc1 the IC50 was 60.3 µM. Work on O=C(O)c1cc2cc(CN(Cc3ccc(-c4csnn4)cc3)S(=O)(=O)c3ccccc3)ccc2o1 yielded an IC50 of 63.6 µM. O=C(O)C[S+]([O-])c1ccc(CN(Cc2ccc(-c3csnn3)cc2)S(=O)(=O)c2ccccc2)cc1 (centres undefined) showed an IC50 of 173 µM. In the case of O=C(O)COc1ccc(S(=O)(=O)N(Cc2ccc(-c3csnn3)cc2)Cc2ccc([S+]([O-])CC(=O)O)cc2)cc1 (centres undefined), the IC50 is reported as greater than 250 µM. Compound O=P(O)(O)C(F)(F)c1ccc(CN(Cc2ccc(-c3csnn3)cc2)S(=O)(=O)c2ccccc2)cc1 has an IC50 of 0.2 µM. For O=C(O)COc1ccc(CN(Cc2ccc(-c3csnn3)cc2)S(=O)(=O)c2ccccc2)cc1C(=O)O, the IC50 was 12.2 µM. In the case of O=C(O)COc1ccc(S(=O)(=O)N(Cc2ccc(-c3csnn3)cc2)Cc2ccc(OCC(=O)O)c(Br)c2)cc1, the IC50 is reported as 4.1 µM. For O=C(O)C(F)(F)Oc1ccc(CN(Cc2ccc(-c3csnn3)cc2)S(=O)(=O)c2ccccc2)cc1Br, the IC50 was 52.1 µM. Compound O=C(O)COc1ccc(S(=O)(=O)N(Cc2ccc(SCC(=O)O)cc2)Cc2ccc(-c3csnn3)cc2)cc1 has an IC50 of 114 µM. Compound O=C(O)C(=O)Nc1ccc(CN(Cc2ccc(-c3csnn3)cc2)S(=O)(=O)c2ccccc2)cc1Br has an IC50 of 13.8 µM. O=C(O)COc1ccc(S(=O)(=O)N(Cc2ccc(-c3csnn3)cc2)Cc2ccc(S(=O)(=O)CC(=O)O)cc2)cc1 was tested, and the IC50 was greater than 250 µM. With O=P(O)(O)Cc1ccc(CN(Cc2ccc(-c3csnn3)cc2)S(=O)(=O)c2ccccc2)cc1 the IC50 was 123 µM. With O=C(O)COc1ccc(S(=O)(=O)N(Cc2ccc(CP(=O)(O)O)cc2)Cc2ccc(-c3csnn3)cc2)cc1 the IC50 was 96.8 µM. O=C(O)COc1ccc(S(=O)(=O)N(Cc2ccc(-c3csnn3)cc2)Cc2ccc3oc(C(=O)O)cc3c2)cc1 gave an IC50 of 29.1 µM. For O=C(O)COc1ccc(CN(Cc2ccc(-c3csnn3)cc2)S(=O)(=O)c2ccccc2)cc1Br, the IC50 was 7.9 µM. For O=C(O)COc1ccc(S(=O)(=O)N(Cc2ccc(C(=O)C(=O)O)cc2)Cc2ccc(-c3csnn3)cc2)cc1, the IC50 was 27.6 µM. For O=C(O)C(=O)N(c1ccccc1)c1ccc(CN(Cc2ccc(-c3csnn3)cc2)S(=O)(=O)c2ccccc2)cc1, the IC50 was 235 µM. O=C(O)COc1ccc(CN(Cc2ccc(-c3csnn3)cc2)S(=O)(=O)c2ccccc2)cc1 was tested, and the IC50 was 54.1 µM. O=C(O)COc1ccc(S(=O)(=O)N(Cc2ccc(-c3csnn3)cc2)Cc2ccc(NC(=O)C(=O)O)c(C(=O)O)c2)cc1 gave an IC50 of 1.4 µM.
